“Also recorded” adds a separate entry of the source. Blank lines part the entries; values can stand above or below the molecule they belong to.
How the values were obtained:
TNF-α production = system: TNF-α production; parameters: method as in PMID 11278990; settings: cited from earlier work
[1] = system: MCP-1 production in RAW 264.7 murine macrophages; parameters: method as in PMID 18267111; settings: 20 µM to 50 µM; cited from earlier work
[2] = system: TNF-α production in RAW 264.7 murine macrophages; parameters: method as in PMID 18267111; settings: 20 µM to 50 µM; cited from earlier work
AGP01 (gastric) = test: Alamar Blue assay, tumoral cells AGP01; assay type: cell-based; settings: 72 h, 20 µmol/L
Protocol: (§1) We also investigated possible cytotoxic effects on tumor cell lines (Table 1). To characterize this activity, the compounds were tested in different tumor cell lines, among which were AGP-01 (gastric), HCT116 (colorectal), MCF07 (breast cancer), NIHOVCAR (ovary), SKAMELL-4 (melanoma), and SF-295 (human glioblastoma), each at a concentration of 20 µM.
(§2) Cytotoxicity assay. The cytotoxicity of diterpene compounds to the murine macrophage cell line J774 was determined by the Alamar Blue method as described by Nakayama et al.. Briefly, adherent cells (5 × 10^3 cells/well) were grown in 96-well tissue culture plates and exposed to substances (2.5 to 10 µg/mL) for 24, 48 and 72 h. After incubation, the Alamar Blue solution (10 μL of 0.4% Alamar Blue (resazurin) in PBS) was added and the cells were incubated for 3 h at 37 °C. Fluorescence was measured (excitation at 545 nm and emission at 595 nm) and expressed as a percentage of the cells in the control after background fluorescence was subtracted. As a positive control of cell death, doxorubicin (5 µg/mL) was used. The assays were performed in triplicate. For the assays with tumoral cells, an Alamar Blue assay was performed using the following cell lines: AGP01—gastric; HCT116—colorectal; MCF07—breast cancer; NIHOVCAR—ovary; SKAMELL4—melanoma; SF295—human glioblastoma, which were seeded in 96-well plates (0.5 × 10^4 cells per well) and incubated in a CO2 atmosphere at 5% and 37 °C. After 24 h, diterpenes at 20 µM were added to each well and incubated for 72 h. Doxorubicin (10 μM) was used as a positive control and DMSO (0.1%) as a negative control. Before the end of the incubation, 10 µL of Alamar Blue (0.02%) was added to each well. The fluorescent signal was monitored using a multiplate reader using a 530–560 nm excitation wavelength and 590 nm emission wavelength. The fluorescent signal generated from the assay was proportional to the number of live cells in the sample, according to the manufacturer.

HCT-116 (colorectal) = test: Alamar Blue assay, tumoral cells HCT-116; assay type: cell-based; settings: 72 h, 20 µmol/L
Protocol: as §1, §2

NIHOVCAR (ovary) = test: Alamar Blue assay, tumoral cells NIHOVCAR; assay type: cell-based; settings: 72 h, 20 µmol/L
Protocol: as §1, §2

[3] = system: SF295 (human glioblastoma); test: Alamar Blue assay, tumoral cells SF295; assay type: cell-based; settings: 72 h, 20 µmol/L
Protocol: as §1, §2

MCF7 (breast cancer) = test: Alamar Blue assay, tumoral cells MCF7; assay type: cell-based; settings: 72 h, 20 µmol/L
Protocol: as §1, §2

SKMELL28 (melanoma) = test: Alamar Blue assay, tumoral cells SKMELL28; assay type: cell-based; settings: 72 h, 20 µmol/L
Protocol: as §1, §2

[4] = system: nitric oxide production in J774 macrophages stimulated with LPS; test: NO production assay (Griess) in LPS-stimulated J774 cells; assay type: cell-based, murine; settings: Mus musculus; J774, LPS 1 µg/mL, 24 h; read-out: inhibition of NO production IC50
Protocol: Our study evaluated the effects of diterpene compounds on the production of nitric oxide in the murine macrophage cell line J774 stimulated with LPS (Figure 2D). NO^• levels were measured by the Greiss method. […] Similar results for kaurenoic acid were observed by Choi et al. […] Figure 2 Effect of the isolated diterpenic acids on nitric oxide (NO^•) and cytokine production in lipopolysaccharide-stimulated J774 cells. (A) TNF-α, (B) IL-6 and (C) IL-10 and (D) NO^•. […] The nitrite and cytokines values are the mean ± S.D. from three independent experiments. Indomethacin was used as a standard. Statistical analysis was performed using the Holm-Sidak multiple comparison. * p < 0.05 when compared to control stimulated with LPS. (1) 3-hydroxy-copalic acid, (2) kaurenoic acid, (3) 3-acetoxy-copalic acid, (4) kolavic acid 15-methyl ester, (5) copalic acid and (6) […]. NO^• production by J774 cells was assayed by measuring the accumulation of nitrite in the culture medium using a Griess reaction. Briefly, after incubation of the cells (1 × 10^6 cells/mL) with diterpene compounds in different concentrations from 6.25 to 100 μM, cells were incubated for 24 h with LPS (1 μg/mL), at 37 °C in a 5% CO2 incubator. Nitric oxide was measured as NO2 in culture supernatant by reaction with Griess reagent. Absorbance of the reaction product was determined at 560 nm using a microplate reader (DTX 800, Beckman). Sodium nitrite was used as a standard to calculate nitrite concentrations.

IL-6 production = IL-6 production in LPS-stimulated J774 cells (CBA); assay type: cell-based, murine; settings: for inhibition of IL-6 production (words): LPS-stimulated J774; for inhibition at 25 µM: Mus musculus, J774, 25 µM (abstract)
Protocol: Figure 2 Effect of the isolated diterpenic acids on nitric oxide (NO^•) and cytokine production in lipopolysaccharide-stimulated J774 cells. (A) TNF-α, (B) IL-6 and (C) IL-10 and (D) NO^•. […] The nitrite and cytokines values are the mean ± S.D. from three independent experiments. Indomethacin was used as a standard. Statistical analysis was performed using the Holm-Sidak multiple comparison. * p < 0.05 when compared to control stimulated with LPS. (1) 3-hydroxy-copalic acid, (2) kaurenoic acid, (3) 3-acetoxy-copalic acid, (4) kolavic acid 15-methyl ester, (5) copalic acid and (6) hardwickiic acid.
[…] The culture supernatants were collected after 24 h of LPS stimulation. The levels of cytokines in the culture media were measured by flow cytometry (BD Cytometric Bead Array—CBA—Mouse Inflammation kit) according to the manufacturer’s instructions.

IL-10 production = IL-10 production in LPS-stimulated J774 cells (CBA); assay type: cell-based, murine
Protocol: Figure 2 Effect of the isolated diterpenic acids on nitric oxide (NO^•) and cytokine production in lipopolysaccharide-stimulated J774 cells. (A) TNF-α, (B) IL-6 and (C) IL-10 and (D) NO^•. Production of NO^• was assayed in culture supernatants of macrophages stimulated with LPS (1 µg/mL) for 24 h in the presence of the four compounds (25 µg/mL to cytokines and 50 µg/mL to NO^•). The nitrite and cytokines values are the mean ± S.D. from three independent experiments. Indomethacin was used as a standard. Statistical analysis was performed using the Holm-Sidak multiple comparison. * p < 0.05 when compared to control stimulated with LPS. (1) 3-hydroxy-copalic acid, (2) kaurenoic acid, (3) 3-acetoxy-copalic acid, (4) kolavic acid 15-methyl ester, (5) copalic acid and (6) hardwickiic acid.
Macrophage cells (1 × 10^6 cells/mL) were incubated with different concentrations of diterpene compounds (12.5 to 50 μM), and then stimulated with 1 μg/mL of LPS. The culture supernatants were collected after 24 h of LPS stimulation. The levels of cytokines in the culture media were measured by flow cytometry (BD Cytometric Bead Array—CBA—Mouse Inflammation kit) according to the manufacturer’s instructions.

CEM (leukemia) = system: CEM (leukemia); parameters: method as in PMID 12165328; settings: single concentration of 78 µM; cited from earlier work
MCF -7 (breast cancer) = system: MCF -7 (breast cancer); parameters: method as in PMID 12165328; settings: single concentration of 78 µM; cited from earlier work
[5] = system: HCT -8 cells (colon cancer); parameters: method as in PMID 12165328; settings: single concentration of 78 µM; cited from earlier work
[6] = system: NO production in RAW 264.7 macrophage stimulated by LPS; parameters: method as in PMID 16280009; settings: RAW 264.7, LPS; kaurenoic acid from Aralia continentalis; read-out: inhibition of NO production IC50; cited from earlier work
[7] = system: TNF-α production and expression; parameters: method as in PMID 18313400; settings: 1 to 20 mg/mL; kaurenoic acid from Helianthus annuus L.; cited from earlier work
erythrocyte = test: Hemolysis test
Protocol: The assay for the characterization of hemolytic activity aimed to evaluate the potential of diterpenes on lysis of the cell membrane.
Blood was collected in heparinized-tubes from Wistar rats, and washed three times with saline solution (NaCl 0.85% + CaCl2 10 mM) by centrifugation at 700 g for 10 min. The pellet of erythrocyte was re-suspended in saline solution for preparation of erythrocyte suspension −2% (SE). A total of 100 µL of the samples of diluted diterpenes was added to 96-well microplates in different concentrations (6.25 to 800 µM); 100 µL of SE was then added; and the samples were incubated for 60 min at 37 °C under constant agitation. The release of hemoglobin was determined after centrifugation (700 g for 10 min) by photometric analysis of the supernatant at 540 nm. Complete hemolysis was achieved using 0.2% Triton X-100 yielding the 100% control value.

Lipoxygenase (LOX) = Lipoxygenase (LOX) (Glycine max, UniProt P08170); test: Lipoxygenase inhibition; assay type: biochemical
Lipoxygenase (LOX), sequence (P08170 whole entry): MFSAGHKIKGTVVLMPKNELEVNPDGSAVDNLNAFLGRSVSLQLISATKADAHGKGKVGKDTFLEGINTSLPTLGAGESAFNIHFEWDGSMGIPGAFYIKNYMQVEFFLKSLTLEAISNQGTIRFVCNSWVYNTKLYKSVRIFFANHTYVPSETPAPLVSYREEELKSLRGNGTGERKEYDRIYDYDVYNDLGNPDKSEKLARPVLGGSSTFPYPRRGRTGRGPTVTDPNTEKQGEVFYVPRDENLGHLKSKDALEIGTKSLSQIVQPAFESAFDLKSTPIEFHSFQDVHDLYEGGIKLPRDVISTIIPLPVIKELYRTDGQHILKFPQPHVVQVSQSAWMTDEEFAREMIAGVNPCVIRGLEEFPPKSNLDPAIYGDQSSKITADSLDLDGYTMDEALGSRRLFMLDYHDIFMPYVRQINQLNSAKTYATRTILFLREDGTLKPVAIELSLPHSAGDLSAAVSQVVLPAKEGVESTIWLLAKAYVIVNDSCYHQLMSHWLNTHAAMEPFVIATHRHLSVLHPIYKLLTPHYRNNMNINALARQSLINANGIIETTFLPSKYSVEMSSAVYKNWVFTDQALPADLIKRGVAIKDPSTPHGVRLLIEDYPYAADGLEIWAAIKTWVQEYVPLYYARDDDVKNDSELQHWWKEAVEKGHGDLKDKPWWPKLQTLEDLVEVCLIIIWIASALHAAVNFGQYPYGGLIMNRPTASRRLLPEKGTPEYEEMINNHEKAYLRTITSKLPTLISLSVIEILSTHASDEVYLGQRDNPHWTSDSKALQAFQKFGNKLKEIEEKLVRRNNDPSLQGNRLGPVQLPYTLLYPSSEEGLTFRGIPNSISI
Protocol: Figure 1 Tyrosinase and lipoxygenase activities of the isolated diterpenes from Copaifera sp. […] 1. 3-hydroxy-copalic acid, 2. kaurenoic acid, 3. 3-acetoxy-copalic acid, 4. kolavic acid15-methyl ester, 5. copalic acid, and 6. hardwickiic acid. Each value is the mean ± S.E. of three independent experiments. Statistical analysis was performed using Holm-Sidak multiple comparisons. * p < 0.05 compared with the negative control.

[8] = LPS-stimulated J774, 12.5 to 50 µM

Molecule: foliol
inhibition of TNF-α production (TNF-α production): showed inhibitory activity on the production of TNF-α

Molecule: linearol acid
inhibition of TNF-α production (TNF-α production): showed inhibitory activity on the production of TNF-α

Molecule: CC(C)c1ccc2c(c1)CC[C@H]1[C@](C)(C(=O)O)CCC[C@]21C [Dehydroabietic acid]
suppression of MCP-1 production [1]: suppresses production | suppression of TNF-α production [2]: suppresses production

IC50 [4]: 61.2 ± 4.2 µM
Molecule: C=C1C[C@@]23CC[C@H]4[C@@](C)(CCC[C@@]4(C)C(=O)O)[C@@H]2CC[C@@H]1C3 [kaurenoic acid]
Viability inhibition (%) AGP01 (AGP01 (gastric); listed as Kaurenoic Acid): 28.1 ± 4.3% | Viability inhibition (%) HCT-116 (HCT-116 (colorectal); listed as Kaurenoic Acid): 0.27 ± 4.3% | Viability inhibition (%) NIHOVCAR (NIHOVCAR (ovary); listed as Kaurenoic Acid): ≤0.01% | Viability inhibition (%) SF295 ([3]; listed as Kaurenoic Acid): 28.0 ± 6.5% | Viability inhibition (%) SF295 ([3]; listed as kaurenoic): around 20% | Viability inhibition (%) MCF7 (MCF7 (breast cancer)): ≤0.01% | Viability inhibition (%) SKMELL28 (SKMELL28 (melanoma)): ≤0.01% | inhibition of IL-6 production (words) (IL-6 production; listed as Kaurenoic): inhibited the production of IL-6 | inhibition of IL-6 production (words) (IL-6 production; listed as kaurenoic): inhibited IL-6 production | inhibition at 25 µM (IL-6 production): 11.2% | IL-10 production (words) (IL-10 production; 12.5 µM and 25 µM): induced the production of IL-10 | IL-10 production (words) (IL-10 production; 50 µM): this induction decreased | IL-10 production (words) (IL-10 production; [8]): increased IL-10 production; also recorded: induced IL-10 production; also recorded: induced production of interleukin-10 | inhibition of CEM tumor cells (CEM (leukemia)): 95% | inhibition of MCF-7 tumor cells (MCF -7 (breast cancer)): 45% | inhibition of HCT-8 tumor cells [5]: 45% | IC50 [6]: 51.7 ± 2.4 µM | inhibition of TNF-α production and expression [7]: inhibitory activity on the production and expression of TNF-α | hemolytic activity (erythrocyte; 100 µM (abstract)): 61.7% | hemolytic activity (erythrocyte; 100 mM (so in the source)): 61.7%

Molecule: COC(=O)/C=C(/C)CC[C@@]1(C)[C@H](C)CC[C@@]2(C)C(C(=O)O)=CCC[C@H]12 [kolavic acid 15-methyl ester, Kolavic acid-15-metyl ester]
lipoxygenase inhibition (Lipoxygenase (LOX); 200 µM): 89.5% ± 1.2% | lipoxygenase inhibition activity (Lipoxygenase (LOX); conclusions, compared to standard quercetin): high lipoxigenase inhibition activity | Viability inhibition (%) AGP01 (AGP01 (gastric)): 17.4 ± 6.7% | Viability inhibition (%) HCT-116 (HCT-116 (colorectal)): ≤0.01% | Viability inhibition (%) NIHOVCAR (NIHOVCAR (ovary)): ≤0.01% | Viability inhibition (%) SF295 [3]: ≤0.01% | Viability inhibition (%) MCF7 (MCF7 (breast cancer)): ≤0.01% | Viability inhibition (%) SKMELL28 (SKMELL28 (melanoma)): ≤0.01% | IC50 [4]: 81.6 ± 2.8 µM | inhibition of IL-6 production (words) (IL-6 production; listed as kolavic-15-methyl ester): inhibited the production of IL-6 | inhibition at 25 µM (IL-6 production): 17.3% | IL-10 production (words) (IL-10 production; [8]): did not induce the production of IL-10

From PMC6272497, “Biological Activities and Cytotoxicity of Diterpenes from Copaifera spp. Oleoresins” (Molecules, 2015)
